{"source": "patent US20090093454A1", "about": "“Chemical Compounds” (priority 2005, published 2009)", "note": "pIC50: −log10 of the molar value.", "data": [{"test_system": "HIV-1", "test": "HIV infectivity assay (Table 2, strain not given)", "type": "cell-based", "conditions": "Human immunodeficiency virus 1, read-out: Activity Level", "method": "(§1) Compounds were profiled against two HIV-1 viruses, the M-tropic (CCR5 utilizing) Ba-L strain and the T-tropic (CXCR4 utilizing) IIIB strain. Both viruses were propagated in human peripheral blood lymphocytes. Compounds were tested for there ability to block infection of the HOS cell line (expressing hCXCR4/hCCR5/hCD4/pHIV-LTR-luciferase) by either HIV-1 Ba-L or HIV-1, IIIB. Compound cytotoxicity was also examined in the absence of virus addition.\n(§2) HOS cells (expressing hCXCR4/hCCR5/hCD4/pHIV-LTR-luciferase) were harvested and diluted in Dulbeccos modified Eagles media supplemented with 2% FCS and non-essential amino acid to a concentration of 60,000 cells/ml. The cells were plated into 96-well plates (100 ul per well) and the plates were placed in a tissue culture incubator (37° C.; 5% CO2/95% air) for a period of 24 h.\nSubsequently, 50 ul of the desired drug solution (4 times the final concentration) was added to each well and the plates were returned to the tissue culture incubator (37° C.; 5% CO2/95% air) for 1 h. Following this incubation 50 ul of diluted virus was added to each well (approximately 2 million RLU per well of virus). The plates were returned to the tissue culture incubator (37° C.; 5% CO2/95% air) and were incubated for a further 96 h.\nFollowing this incubation the endpoint for the virally infected cultures was quantified following addition of Steady-Glo Luciferase assay system reagent (Promega, Madison, Wis.). Cell viability or non-infected cultures was measured using a CellTiter-Glo luminescent cell viability assay system (Promega, Madison, Wis.). All luminescent readouts are performed on a Topcount luminescence detector (Packard, Meridien, Conn.).\nas §1, with “Ba-L was” for “Both viruses were”, “either peripheral blood lymphocytes or SupT1/CCR5+/CXCR4+ cells. IIIB was propagated in” for “human”, “their” for “there”\nas §2, with “FCS” for “FCS and non-essential amino acid”, “120,000” for “60,000”, “(50 μl” for “(100 ul”, “(370°” for “(37°”\nSubsequently, 50 μl of the desired drug solution (2 times the final concentration) was added to each well and the plates were returned to the tissue culture incubator (370° C.; 5% CO2/95% air) for 1 h. Following this incubation, 60 μl of diluted virus (4 times the final concentration) was added to 60 μl of 2× the final desired concentration of the compound and 100 μl of this compound/virus mix was added to each well (approximately 2 million RLU per well of virus). The plates were returned to the tissue culture incubator (370° C.; 5% CO2/95% air) and were incubated for a further 96 h.", "values": [{"smiles": "NCCCCn1c(CN2CCC[C@H]3CCc4cccnc4[C@H]32)nc2ccccc21", "note": "(racemic) [Example 38, (cis) 4-[2-(3,4,4a,5,6,10b-hexahydro-1,10-phenanthrolin-1(2H)-ylmethyl)-1H-benzimidazol-1-yl]-1-butanamine]", "pIC50": "6.30 to 7.00"}, {"smiles": "NCCCCCn1c(CN2CCC[C@H]3CCc4cccnc4[C@H]32)nc2ccccc21", "note": "(racemic) [Example 39, (cis) 5-[2-(3,4,4a,5,6,10b-hexahydro-1,10-phenanthrolin-1(2H)-ylmethyl)-1H-benzimidazol-1-yl]-1-pentanamine]", "pIC50": "6.30 to 7.00"}, {"smiles": "CN(C)CCCn1c(CN2CCC[C@H]3CCc4cccnc4[C@H]32)nc2ccccc21", "note": "(racemic) [Example 41, (cis) 3-[2-(3,4,4a,5,6,10b-hexahydro-1,10-phenanthrolin-1(2H)-ylmethyl)-1H-benzimidazol-1-yl]-N,N-dimethyl-1-propanamine]", "pIC50": "> 7.00"}, {"smiles": "c1cnc2c(c1)CC[C@@H]1CCCN(Cc3nc4ccccc4n3CCCN3CCCCC3)[C@H]21", "note": "(racemic) [Example 43, (cis) 1-({1-[3-(1-piperidinyl)propyl]-1H-benzimidazol-2-yl}methyl)-1,2,3,4,4a,5,6,10b-octahydro-1,10-phenanthroline]", "pIC50": "> 7.00"}, {"smiles": "c1cnc2c(c1)CC[C@@H]1CCCN(Cc3nc4ccccc4n3CCCN3CCOCC3)[C@H]21", "note": "(racemic) [Example 44, (cis) 1-({1-[3-(4-morpholinyl)propyl]-1H-benzimidazol-2-yl}methyl)-1,2,3,4,4a,5,6,10b-octahydro-1,10-phenanthroline]", "pIC50": "6.30 to 7.00"}, {"smiles": "c1ccc(Cn2c(CN3CCC[C@H]4CCc5cccnc5[C@H]43)nc3ccccc32)nc1", "note": "(racemic) [Example 45, (cis) 1-{[1-(2-pyridinylmethyl)-1H-benzimidazol-2-yl]methyl}-1,2,3,4,4a,5,6,10b-octahydro-1,10-phenanthroline]", "pIC50": "5.00 to 6.30"}, {"smiles": "c1cnc2c(c1)CC[C@@H]1CCCN(Cc3cn4c(N5CCOCC5)cccc4n3)[C@H]21", "note": "(racemic) [Example 52, (cis) 1-{[5-(4-morpholinyl)imidazo[1,2-a]pyridin-2-yl]methyl}-1,2,3,4,4a,5,6,10b-octahydro-1,10-phenanthroline]", "pIC50": "5.00 to 6.30"}, {"smiles": "NCCCCn1c(CN2CC[C@@H]3CCc4cccnc4[C@H]32)nc2ccccc21", "note": "(racemic) [Example 130, (trans) 4-[2-(2,3,3a,4,5,9b-hexahydro-1H-pyrrolo[3,2-h]quinolin-1-ylmethyl)-1H-benzimidazol-1-yl]-1-butanamine]", "pIC50": "6.30 to 7.00"}, {"smiles": "c1cnc2c(c1)CC[C@H]1CCN(Cc3nc4ccccc4n3Cc3nc4ccccc4[nH]3)[C@H]21", "note": "(racemic) [Example 131, (trans) 1-{[1-(1H-benzimidazol-2-ylmethyl)-1H-benzimidazol-2-yl]methyl}-2,3,3a,4,5,9b-hexahydro-1H-pyrrolo[3,2-h]quinoline]", "pIC50": "5.00 to 6.30"}, {"smiles": "CN(C)CCCn1c(CN2CC[C@@H]3CCc4cccnc4[C@H]32)nc2ccccc21", "note": "(racemic) [Example 132, (trans) 3-[2-(2,3,3a,4,5,9b-hexahydro-1H-pyrrolo[3,2-h]quinolin-1-ylmethyl)-1H-benzimidazol-1-yl]-N,N-dimethyl-1-propanamine]", "pIC50": "6.30 to 7.00"}, {"smiles": "c1cnc2c(c1)CC[C@H]1CCN(Cc3nc4ccccc4n3CCCN3CCCCC3)[C@H]21", "note": "(racemic) [Example 133, (trans) 1-({1-[3-(1-piperidinyl)propyl]-1H-benzimidazol-2-yl}methyl)-2,3,3a,4,5,9b-hexahydro-1H-pyrrolo[3,2-h]quinoline]", "pIC50": "6.30 to 7.00"}, {"smiles": "NCCCCCn1c(CN2CCC[C@@H]3CCc4cccnc4[C@H]32)nc2ccccc21", "note": "(relative stereo) [Example 35, (trans)-5-[2-(3,4,4a,5,6,10b-hexahydro-1,10-phenanthrolin-1(2H)-ylmethyl)-1H-benzimidazol-1-yl]-1-pentanamine]", "pIC50": "6.30 to 7.00"}, {"smiles": "NCCCCn1c(CN2CCC[C@@H]3CCc4cccnc4[C@H]32)nc2ccccc21", "note": "(relative stereo) [Example 37, (trans) 4-[2-(3,4,4a,5,6,10b-hexahydro-1,10-phenanthrolin-1(2H)-ylmethyl)-1H-benzimidazol-1-yl]-1-butanamine]", "pIC50": "> 7.00"}, {"smiles": "CN(C)CCCn1c(CN2CCC[C@@H]3CCc4cccnc4[C@H]32)nc2ccccc21", "note": "(relative stereo) [Example 40, (trans) 3-[2-(3,4,4a,5,6,10b-hexahydro-1,10-phenanthrolin-1(2H)-ylmethyl)-1H-benzimidazol-1-yl]-N,N-dimethyl-1-propanamine]", "pIC50": "6.30 to 7.00"}, {"smiles": "CN1CCCC(Cn2c(CN3CCC[C@@H]4CCc5cccnc5[C@H]43)nc3ccccc32)C1", "note": "(relative stereo) [Example 42, (trans) 1-({1-[(1-methyl-3-piperidinyl)methyl]-1H-benzimidazol-2-yl}methyl)-1,2,3,4,4a,5,6,10b-octahydro-1,10-phenanthroline]", "pIC50": "6.30 to 7.00"}, {"smiles": "c1ccc(Cn2ccnc2Cn2c(CN3CCC[C@@H]4CCc5cccnc5[C@H]43)nc3ccccc32)cc1", "note": "(relative stereo) [Example 46, (trans) 1-[(1-{[1-(phenylmethyl)-1H-imidazol-2-yl]methyl}-1H-benzimidazol-2-yl)methyl]-1,2,3,4,4a,5,6,10b-octahydro-1,10-phenanthroline]", "pIC50": "5.00 to 6.30"}, {"smiles": "CN1CCCN(c2cccc3nc(CN4CCC[C@@H]5CCCc6cccnc6[C@H]54)cn23)CC1", "note": "(relative stereo) [Example 125, (trans) 1-{[5-(4-methylhexahydro-1H-1,4-diazepin-1-yl)imidazo[1,2-a]pyridin-2-yl]methyl}-2,3,4,4a,5,6,7,11b-octahydro-1H-pyrido[3′,2′:6,7]cyclohepta[1,2-b]pyridine]", "pIC50": "6.30 to 7.00"}, {"smiles": "CN1CCN(c2cccc3nc(CN4CCC[C@H]5CCc6cccnc6[C@H]54)[nH]c23)CC1", "note": "[Example 48, (4aR,10bS)-1-{[4-(4-methyl-1-piperazinyl)-1H-benzimidazol-2-yl]methyl}-1,2,3,4,4a,5,6,10b-octahydro-1,10-phenanthroline]", "pIC50": "> 7.00"}, {"smiles": "c1cnc2c(c1)CC[C@@H]1CCCN(Cc3c[nH]cn3)[C@H]21", "note": "[Example 50, (4aR,10bS)-1-(1H-imidazol-4-ylmethyl)-1,2,3,4,4a,5,6,10b-octahydro-1,10-phenanthroline]", "pIC50": "5.00 to 6.30"}, {"smiles": "CN(C)CCCn1cnc(CN2CCC[C@H]3CCc4cccnc4[C@H]32)c1", "note": "[Example 51a, (3-{4-[(4aR,10bS)-3,4,4a,5,6,10b-hexahydro-1,10-phenanthrolin-1(2H)-ylmethyl]-1H-imidazol-1-yl}propyl)dimethylamine]", "pIC50": "5.00 to 6.30"}, {"smiles": "CN(C)CCCn1cncc1CN1CCC[C@H]2CCc3cccnc3[C@H]21", "note": "[Example 51b, (3-{5-[(4aR,10bS)-3,4,4a,5,6,10b-hexahydro-1,10-phenanthrolin-1(2H)-ylmethyl]-1H-imidazol-1-yl}propyl)dimethylamine]", "pIC50": "5.00 to 6.30"}, {"smiles": "CN1CCN(c2cccc3nc(CN4CCC[C@H]5CCc6cccnc6[C@@H]54)cn23)CC1", "note": "[Example 53, (4aR,10bR)-1-{[5-(4-methyl-1-piperazinyl)imidazo[1,2-a]pyridin-2-yl]methyl}-1,2,3,4,4a,5,6,10b-octahydro-1,10-phenanthroline]", "pIC50": "> 7.00"}, {"smiles": "CN1CCN(c2cccc3nc(CN4CCC[C@H]5CCc6cccnc6[C@H]54)c(CO)n23)CC1", "note": "[Example 54, [2-[(4aR,10bS)-3,4,4a,5,6,10b-hexahydro-1,10-phenanthrolin-1(2H)-ylmethyl]-5-(4-methyl-1-piperazinyl)imidazo[1,2-a]pyridin-3-yl]methanol]", "pIC50": "> 7.00"}, {"smiles": "CCN(CC)Cc1c(CN2CCC[C@H]3CCc4cccnc4[C@H]32)nc2cccc(N3CCN(C)CC3)n12", "note": "[Example 55, N-ethyl-N-{[2-[(4aR,10bS)-3,4,4a,5,6,10b-hexahydro-1,10-phenanthrolin-1(2H)-ylmethyl]-5-(4-methyl-1-piperazinyl)imidazo[1,2-a]pyridin-3-yl]methyl}ethanamine]", "pIC50": "> 7.00"}]}]}
